Target: T1, human Nav1.8 channels (Homo sapiens, UniProt Q9Y5Y9)
T1 construct: expressed in transfected cells
Test: Nav1.8 Qube automated patch-clamp assay
Format: cell-based
Settings: human Nav1.8 stably expressed in HEK 293 cells; whole-cell voltage clamp, room temperature; resting or inactivated state not specified; read-out: IC50 values (nM) for Examples in the Nav1.8 Qube Assay
Procedure, shortened: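 Whole-cell patch clamp at room temperature on HEK293 cells stably expressing human Nav1.8. A 1 Hz train of ten 20 ms pulses to 10 mV from −90 mV holding, with −67 mV repolarization, was applied; first- and tenth-pulse peak currents gave resting and inactivated-state IC50s by Hill fitting.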

T1 sequence (Q9Y5Y9 whole entry): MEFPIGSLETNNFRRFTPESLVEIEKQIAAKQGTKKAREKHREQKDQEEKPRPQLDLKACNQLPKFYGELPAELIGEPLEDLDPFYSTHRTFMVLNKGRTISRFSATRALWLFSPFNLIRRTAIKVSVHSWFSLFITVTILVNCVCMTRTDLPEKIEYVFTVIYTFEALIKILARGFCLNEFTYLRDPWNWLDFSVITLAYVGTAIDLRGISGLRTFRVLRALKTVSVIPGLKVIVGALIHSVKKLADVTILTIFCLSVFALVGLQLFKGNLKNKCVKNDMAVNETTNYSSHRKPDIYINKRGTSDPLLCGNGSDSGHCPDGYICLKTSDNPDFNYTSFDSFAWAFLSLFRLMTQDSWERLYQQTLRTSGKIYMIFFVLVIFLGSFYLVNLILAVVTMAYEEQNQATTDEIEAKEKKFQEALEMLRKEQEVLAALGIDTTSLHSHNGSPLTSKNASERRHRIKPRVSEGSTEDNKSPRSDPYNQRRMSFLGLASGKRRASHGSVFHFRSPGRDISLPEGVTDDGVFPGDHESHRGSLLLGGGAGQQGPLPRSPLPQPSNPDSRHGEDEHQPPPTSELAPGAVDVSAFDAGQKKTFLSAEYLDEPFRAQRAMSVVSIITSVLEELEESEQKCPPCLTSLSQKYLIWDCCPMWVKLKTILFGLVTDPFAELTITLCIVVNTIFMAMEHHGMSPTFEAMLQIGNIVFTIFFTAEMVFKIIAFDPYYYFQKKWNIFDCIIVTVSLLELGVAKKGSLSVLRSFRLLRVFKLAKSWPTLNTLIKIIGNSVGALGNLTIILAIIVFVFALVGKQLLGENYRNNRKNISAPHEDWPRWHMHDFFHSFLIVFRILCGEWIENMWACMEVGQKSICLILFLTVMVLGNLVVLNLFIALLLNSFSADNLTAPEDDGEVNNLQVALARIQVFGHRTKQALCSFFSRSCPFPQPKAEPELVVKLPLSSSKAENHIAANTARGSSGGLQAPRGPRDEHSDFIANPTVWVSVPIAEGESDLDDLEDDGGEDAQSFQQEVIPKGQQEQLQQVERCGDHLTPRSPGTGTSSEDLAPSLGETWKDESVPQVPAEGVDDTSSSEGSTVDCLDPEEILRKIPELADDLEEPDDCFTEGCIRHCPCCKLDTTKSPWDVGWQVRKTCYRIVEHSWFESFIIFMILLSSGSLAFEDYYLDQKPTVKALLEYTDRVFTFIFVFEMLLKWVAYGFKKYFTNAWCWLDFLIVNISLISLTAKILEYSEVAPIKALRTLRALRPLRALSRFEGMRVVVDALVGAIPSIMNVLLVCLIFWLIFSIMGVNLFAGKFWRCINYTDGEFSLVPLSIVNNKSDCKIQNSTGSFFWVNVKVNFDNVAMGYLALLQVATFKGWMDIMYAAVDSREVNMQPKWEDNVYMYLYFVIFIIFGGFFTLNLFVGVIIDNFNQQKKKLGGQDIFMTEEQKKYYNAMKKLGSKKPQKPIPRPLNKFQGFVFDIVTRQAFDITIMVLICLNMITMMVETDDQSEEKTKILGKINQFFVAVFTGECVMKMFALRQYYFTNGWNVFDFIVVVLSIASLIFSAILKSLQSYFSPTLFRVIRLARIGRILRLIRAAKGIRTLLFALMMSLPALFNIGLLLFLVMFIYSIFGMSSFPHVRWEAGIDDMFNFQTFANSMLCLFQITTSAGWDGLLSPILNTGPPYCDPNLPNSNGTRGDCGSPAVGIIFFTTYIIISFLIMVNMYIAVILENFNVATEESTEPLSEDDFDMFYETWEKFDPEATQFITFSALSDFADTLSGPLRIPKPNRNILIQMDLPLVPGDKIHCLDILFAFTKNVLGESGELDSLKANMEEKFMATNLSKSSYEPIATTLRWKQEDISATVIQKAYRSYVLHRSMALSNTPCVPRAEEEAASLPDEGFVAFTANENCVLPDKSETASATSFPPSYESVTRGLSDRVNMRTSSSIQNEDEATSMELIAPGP

Row | Compound | IC50 [nM]
1 | NS(=O)(=O)c1cc(NC(=O)c2ncc(Cl)nc2N2CCCC(F)(F)CC2)ccn1 [Example 216, 5-chloro-3-(4,4-difluoroazepan-1-yl)-N-(2-sulfamoylpyridin-4-yl)pyrazine-2-carboxamide] | 80
2 | NS(=O)(=O)c1cc(NC(=O)c2cc(C3CC3)c(C3CC3)nc2N2CCC(F)(F)CC2)ccn1 [Example 12, 5,6-dicyclopropyl-2-(4,4-difluoropiperidin-1-yl)-N-(2-sulfamoylpyridin-4-yl)nicotinamide] | 94

Source: US20210387966A1, “2-AMINO-N-HETEROARYL-NICOTINAMIDES AS NAV1.8 INHIBITORS” (Merck Sharp & Dohme Corp., priority 2018, published 2021)
